Experimental data: US20240158386A1, “BENZOXAZOLONE INHIBITORS OF INFLAMMASOMES” (ICAHN SCHOOL OF MEDICINE AT MOUNT SINAI, priority 2021, published 2024)

Assays:
[1] = system: ASC specks following NLRP3 activation; experiment: ASC speck formation / ASC oligomerization in m-Cerulean ASC labeled macrophages; format: cell-based, murine; conditions: 10 μM pretreatment, LPS and ATP, compared with DMSO-treated cells
Description: m-Cerulean ASC labeled macrophages. NLRP3 Knock Out immortalized murine macrophages, stably expressing m-Cerulean-ASC, and NLRP3-Flag were a kind donation of Prof. Eicke Latz, (Institute of Innate Immunity, University of Bonn, Germany). Murine macrophages were maintained in high glucose DMEM medium supplemented with 10% FBS, 1% sodium pyruvate, and passaged every 2-3 days, before reaching confluence.
For ASC speck formation evaluation, murine macrophages were seeded in 96 well SCREENSTAR black microplates with clear base, 24 hours before stimulation. Then, cells were incubated for 1 hour with different concentrations of the inhibitors, or with the same DMSO volume for positive and negative controls for NLRP3 activation—DMSO-LPS-ATP or only DMSO, respectively. 0.5 μM MCC950 was used as a positive control for inhibition of NLRP3-mediated ASC oligomerization. NLRP3 activation was induced through treatment with 250 ng/ml LPS for 2.5 hours, followed by addition of 4.5 mM ATP for 45 min. Cells were then fixed and counterstained in a single step, as previously described (Stutz, A. et al. ASC Speck Formation as a Readout for Inflammasome Activation. in The Inflammasome (eds. De Nardo, C. M. & Latz, E.) vol. 1040 91-101 (Humana Press, 2013).). For that, a stock solution of DRAQS in formaldehyde was used, being the final concentrations 1% formaldehyde and 2.5 μM DRAQ5.
ASC oligomerization determination. […] ASC specks in cells pretreated with C75, C77, C78, and C97, before NLRP3 activation (as above indicated), were visualized with a widefield Leica DMi8 fluorescence microscope, using the 20× objective. […] For image analysis and speck quantification, ImageJ was used https://imagej.nih.gov/ij/index.html. Speck and nuclei quantification was performed as previously described in Stutz et al. When required (overlapping nuclei), the watershed separation algorithm was used to separate the particles. […] The rate of speck positive cells was calculated by normalizing the number of speck positive cells to the number of nuclei. […]

NLRP3 inflammasome = target: T1, NLRP3 inflammasome (Mus musculus, UniProt Q8R4B8); experiment: NLRP3 inflammasome activation assay: IL-1β release by primary microglia after LPS and ATP; format: cell-based, murine; conditions: for inhibition of IL-1β release upon NLRP3 activation: 100 μM compound; for inhibition of IL-1β release upon NLRP3 activation / IC50: microglia, LPS and ATP; for IC50: IL-1β release, nonlinear fit of dose-response, read-out: IC50; for remaining activity at 100 µM: microglia cultures pretreated with 100 μM compound before NLRP3 activation with LPS and ATP, read-out: % Residual activity (percentage of IL-1β, referred to control)
T1 construct: endogenous in cells; host or cells: primary microglia from cortices of 2-3 day old WT mouse pups
Description: Murine primary microglia. Mixed cortical cultures were prepared as previously described (Bronstein, R. et al. J. Vis. Exp. JoVE 50647 (2013) doi:10.3791/50647). Briefly, cortices from 2-3 days old, WT, or NLRP3 KO pups were isolated, digested, and seeded at a density of 8 cortices per 10 ml petri dish. Every three days, the medium was replaced by fresh culture medium (DMEM, 10% FBS, 1% penicillin-streptomycin). After three weeks, mixed glial cultures had reached confluence, and microglia cells were isolated by mild trypsinization as previously described (Saura, J. et al. Glia 44, 183-189 (2003)). In brief, cells were washed with culture medium without FBS and treated with a mixture of trypsin 0.25% (without EDTA) and DMEM-F12 medium in a 1:3 proportion. After an incubation period of approximately 40 min, an intact layer of mixed glial cells detached, leaving microglia attached firmly to the bottom of the Petri-dish. Pure microglia were then isolated by 15 min incubation with trypsin (0.05%)-EDTA at 37° C., followed by gentle shaking. Cells were counted and seeded at the desired density, typically 7.5·10^4 cells/well in 24 well-plates.
NLRP3 inflammasome activation assay. Primary microglia cultures were incubated with the compounds that inhibited IL-1β production in THP1 macrophages. Cells pretreated with 100 μM of the compounds—or with the same DMSO volume, in the case of control samples—were primed with 400 ng/ml LPS for 3 hours, and activated with 4.5 mM ATP for 45 minutes or […] nigericin for 1 hour. Dose-response curves were conducted by incubating microglia cultures with different concentrations of the selected compounds, ranging from 0.001 to 100 μM, 1 hour before NLRP3 activation with LPS and ATP. Supernatants were collected for IL-1β and toxicity assessments.
(§1) Cytokine quantification. IL-1β in cell supernatants and brain tissue samples—after the different treatment groups—was quantified using the Mouse IL-1 beta/IL-1F2 DuoSet ELISA kit (R&D systems), IL-6 in cell culture supernatant was measured through the Mouse IL-6 ELISA kit (ThermoFisher), TNF-α in cell culture supernatants was determined using the Mouse TNF-alpha DuoSet ELISA (R*D systems), and IL-18 in brain tissue was measured through the IL-18 Mouse ELISA Kit (Invitrogen) following the manufacturers' recommended protocol. IL-1β precursor and cleaved IL-1β in the FC of mice treated with vehicles, LPS, or C77-LPS was assessed by western blot. All samples were run in technical duplicates.

NLRC4 inflammasome = target: T2, NLRC4 inflammasome (Mus musculus, UniProt Q3UP24); experiment: NLRC4 inflammasome activation assay: IL-1β release, microglia from NLRP3 KO mice, LPS and flagellin; format: cell-based; conditions: 10 μM; microglia from NLRP3 KO mice, LPS and flagellin
T2 construct: endogenous in cells; host or cells: primary microglia from NLRP3 KO mice
Description: AIM2, NLRP7, and NLRC4 inflammasomes activation assays. […] AIM2 inflammasome activation was induced through the addition of 100 ng/ml LPS for 2 hours, followed by transfection of 1 μg poly(dA:dT) using Lipofectamine 2000 during 2 hours, following the manufacturer recommendations. NLRC4 was activated by treatment with 150 ng/ml LPS for 2 hours, before transfection of 1 μg flagellin during 2 hours, using lipofectamine 2000 as transfection reagent. Negative and positive controls were pre-treated with the same DMSO percentage as cells treated with the inhibitors. Negative controls were kept untreated after DMSO addition, while LPS-poly(dA:dT) or LPS-flagellin was added to positive controls for AIM2, and NLRC4 activation, respectively. For activation of the NLRP7 inflammasome different conditions were assessed: treatment of WT microglia cultures with 400 ng/ml fibroblast-stimulating lipopeptide-1 (fsl-1) for 7 hours, priming with 150 ng/ml LPS for 1 hour and treatment with 400 ng/ml fsl-1 for 7 hours, and priming with 150 ng/ml LPS and transfection of 400 ng/ml fsl-1 with lipofectamine. MCC950 was used as a negative control for NLRC4 and AIM-2 inhibition. Cells were pretreated with 5 μM MCC950 before LPS addition, and 2 hours later the NLRC4 and AIM-2 activation was induced through addition of their specific activators. Cell supernatants were collected for IL-1β measurement.
as §1

T1 sequence (Q8R4B8 whole entry): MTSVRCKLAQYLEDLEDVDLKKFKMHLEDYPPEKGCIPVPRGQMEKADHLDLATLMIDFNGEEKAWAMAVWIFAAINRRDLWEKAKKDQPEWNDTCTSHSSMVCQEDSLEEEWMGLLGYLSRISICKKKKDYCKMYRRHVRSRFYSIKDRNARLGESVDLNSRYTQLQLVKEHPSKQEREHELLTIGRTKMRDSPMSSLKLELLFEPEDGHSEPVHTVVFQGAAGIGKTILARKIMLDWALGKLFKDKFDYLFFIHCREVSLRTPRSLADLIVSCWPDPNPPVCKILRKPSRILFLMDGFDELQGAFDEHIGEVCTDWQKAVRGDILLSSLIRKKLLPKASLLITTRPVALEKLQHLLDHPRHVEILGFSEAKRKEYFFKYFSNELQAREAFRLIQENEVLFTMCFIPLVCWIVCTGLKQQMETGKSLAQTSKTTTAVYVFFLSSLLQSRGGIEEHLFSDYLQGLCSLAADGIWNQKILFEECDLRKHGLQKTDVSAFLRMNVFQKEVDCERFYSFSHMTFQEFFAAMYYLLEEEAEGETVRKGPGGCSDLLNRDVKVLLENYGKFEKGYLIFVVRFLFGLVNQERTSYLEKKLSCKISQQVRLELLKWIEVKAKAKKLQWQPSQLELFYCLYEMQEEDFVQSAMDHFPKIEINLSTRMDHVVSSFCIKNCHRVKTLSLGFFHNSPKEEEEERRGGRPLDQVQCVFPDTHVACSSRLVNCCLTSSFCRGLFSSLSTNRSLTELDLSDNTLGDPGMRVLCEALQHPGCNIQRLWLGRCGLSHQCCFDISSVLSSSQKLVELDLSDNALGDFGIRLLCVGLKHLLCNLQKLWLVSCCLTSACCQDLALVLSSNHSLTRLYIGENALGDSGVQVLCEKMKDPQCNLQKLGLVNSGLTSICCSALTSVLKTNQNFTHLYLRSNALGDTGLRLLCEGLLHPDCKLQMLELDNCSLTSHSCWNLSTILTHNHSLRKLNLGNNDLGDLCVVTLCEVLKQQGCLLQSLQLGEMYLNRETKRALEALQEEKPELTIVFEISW
T2 sequence (Q3UP24 whole entry): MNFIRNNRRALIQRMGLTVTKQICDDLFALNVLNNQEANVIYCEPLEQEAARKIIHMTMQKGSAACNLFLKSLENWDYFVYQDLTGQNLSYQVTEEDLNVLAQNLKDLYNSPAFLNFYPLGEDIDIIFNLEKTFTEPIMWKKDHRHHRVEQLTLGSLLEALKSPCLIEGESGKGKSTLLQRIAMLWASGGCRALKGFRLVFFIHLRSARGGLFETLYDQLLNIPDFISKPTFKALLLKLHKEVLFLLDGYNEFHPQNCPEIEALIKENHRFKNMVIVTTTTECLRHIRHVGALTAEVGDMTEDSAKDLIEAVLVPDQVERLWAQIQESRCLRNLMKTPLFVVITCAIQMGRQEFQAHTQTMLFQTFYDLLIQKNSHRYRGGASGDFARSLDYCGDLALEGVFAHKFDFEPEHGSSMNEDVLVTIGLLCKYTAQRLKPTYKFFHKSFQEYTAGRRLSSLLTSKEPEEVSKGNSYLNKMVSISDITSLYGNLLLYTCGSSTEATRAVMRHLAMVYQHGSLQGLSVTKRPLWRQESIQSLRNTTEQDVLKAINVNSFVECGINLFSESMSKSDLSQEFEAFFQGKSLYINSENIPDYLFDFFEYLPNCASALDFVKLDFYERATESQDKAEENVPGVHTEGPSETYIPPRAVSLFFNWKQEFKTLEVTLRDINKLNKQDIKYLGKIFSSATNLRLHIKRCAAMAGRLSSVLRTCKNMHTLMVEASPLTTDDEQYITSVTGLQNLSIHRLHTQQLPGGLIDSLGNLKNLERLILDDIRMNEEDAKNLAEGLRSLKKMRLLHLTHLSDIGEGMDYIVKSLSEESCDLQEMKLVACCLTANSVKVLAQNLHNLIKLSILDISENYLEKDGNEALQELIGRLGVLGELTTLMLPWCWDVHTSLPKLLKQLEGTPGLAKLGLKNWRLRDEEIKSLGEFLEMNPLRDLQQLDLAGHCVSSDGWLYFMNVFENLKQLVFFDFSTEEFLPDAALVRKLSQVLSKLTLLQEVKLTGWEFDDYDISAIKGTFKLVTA

SMILES | rate of ASC speck positive cells [1] | inhibition of IL-1β release upon NLRP3 activation (NLRP3 inflammasome) | IC50 (NLRP3 inflammasome) [µM] | remaining activity at 100 µM (NLRP3 inflammasome) [%] | inhibition of NLRC4-mediated IL-1β production (NLRC4 inflammasome)
O=C(Cn1c(=O)oc2ccccc21)NCC(O)(c1ccoc1)c1ccco1 (stereo not shown) [Compound C75] | significantly reduced | completely prevented IL-1β secretion | 9.24 ± 1.06 | 0 | presented inhibitory power against the NLRC4 inflammasome
O=C(Cn1c(=O)oc2ccccc21)NCCn1cc(-c2ccoc2)cn1 [Compound C78, N-(2-(4-(furan-3-yl)-1H-pyrazol-1-yl)ethyl)-2-(2-oxobenzoidloxazol-3(2H)-yl)acetamide] | significantly reduced | completely prevented IL-1β secretion | 8.26 ± 1.16 | 0 | presented inhibitory power against the NLRC4 inflammasome
